Measured values from patent US10820591B2, “Substituted sulfonyl amides for controlling animal pests” (Bayer Aktiengesellschaft, priority 2016, dated 2020).

Key:
Assay type in all cases: in vivo
[1] = tested on: Meloidogyne incognita; test: Meloidogyne incognita test, comparative examples (soil drench, lettuce); settings: 504 h, MELGIN, 21dat
Procedure: Meloidogyne incognita Test [table] To produce a suitable active compound preparation, 1 part by weight of active compound is mixed with the specified amounts of solvent and emulsifier, and the concentrate is diluted with water to the desired concentration, it being necessary to include the volume of soil which is drenched in the calculation. It should be ensured that a concentration of 20 ppm of emulsifier in the soil is not exceeded. To produce further test concentrations, water is used for dilution. Pots filled with soil (loamy sand) are watered with the active compound solution. An egg/larvae suspension of the southern root-knot nematode (Meloidogyne incognita) is added, lettuce seeds are scattered over the surface of the soil, and they are covered over with quartz sand. The lettuce seeds germinate and the plants develop. The galls develop on the roots. After 21 days, the nematicidal efficacy in % is determined by the formation of galls. 100% means that no galls have been found; 0% means that the number of galls on the treated plants corresponds to the untreated control.

[2] = tested on: Phaedon cochleariae; test: Phaedon cochleariae spray test; settings: 500 g/ha, Chinese cabbage leaf discs, after 7 days
Procedure: Phaedon cochleariae—Spray Test
(§1) To produce a suitable active compound preparation, 1 part by weight of active compound is dissolved with the specified parts by weight of solvent and made up to the desired concentration with water containing an emulsifier concentration of 1000 ppm. To produce further test concentrations, the formulation is diluted with emulsifier-containing water.
After 7 days, the efficacy in % is determined. 100% means that all the beetle larvae have been killed; 0% means that no beetle larvae have been killed.

[3] = tested on: Meloidogyne incognita; test: Meloidogyne incognita test (sand, lettuce, gall formation); settings: Meloidogyne incognita, 336 h, 20 ppm, after 14 days; read-out: nematicidal efficacy (formation of galls)
In short: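 Gall counts on lettuce roots were scored after 14 days in sand inoculated with root-knot nematode eggs/larvae plus compound diluted in water. Values run from 0% (galls as in untreated plants) to 100% (gall-free).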

[4] = tested on: Tetranychus urticae; test: Tetranychus urticae spray test, OP-resistant; settings: foliar, 144 h, bean leaf discs, after 6 days, read-out: efficacy
Procedure: Tetranychus urticae—Spray Test, OP-Resistant
as §1
Discs of bean leaves (Phaseolus vulgaris) infested with all stages of the greenhouse red spider mite (Tetranychus urticae) are sprayed with an active compound preparation of the desired concentration.
After 6 days, the efficacy in % is determined. 100% means that all the spider mites have been killed; 0% means that no spider mites have been killed.

[5] = tested on: Spodoptera frugiperda; test: Spodoptera frugiperda spray test; settings: 500 g/ha, maize leaf discs, after 7 days
Procedure: Spodoptera frugiperda—Spray Test [table] To produce a suitable active compound preparation, 1 part by weight of active compound is dissolved with the specified parts by weight of solvent and made up to the desired concentration with water containing an emulsifier concentration of 1000 ppm. To produce further test concentrations, the formulation is diluted with emulsifier-containing water. Leaf discs of maize (Zea mays) are sprayed with an active compound preparation of the desired concentration and, after drying, populated with caterpillars of the armyworm (Spodoptera frugiperda). After 7 days, the efficacy in % is determined. 100% means that all the caterpillars have been killed; 0% means that no caterpillar has been killed.

[6] = tested on: Myzus persicae; test: Myzus persicae spray test (Chinese cabbage leaf discs); settings: foliar, 144 h, 500 g/ha, after 6 days, read-out: efficacy
Procedure: Myzus persicae—Spray Test [table] To produce a suitable active compound preparation, 1 part by weight of active compound is dissolved with the specified parts by weight of solvent and made up to the desired concentration with water containing an emulsifier concentration of 1000 ppm. To produce further test concentrations, the formulation is diluted with emulsifier-containing water. Discs of Chinese cabbage leaves (Brassica pekinensis) infested by all stages of the green peach aphid (Myzus persicae) are sprayed with an active compound preparation of the desired concentration. After 6 days, the efficacy in % is determined. 100% means that all the aphids have been killed; 0% means that no aphids have been killed.

[7] = tested on: Boophilus microplus; test: Boophilus microplus injection test; settings: 20 μg/animal, after 7 days
Procedure: Boophilus microplus—Injection Test Solvent: dimethyl sulfoxide To produce a suitable active compound preparation, 10 mg of active compound are mixed with 0.5 ml of solvent and the concentrate is diluted to the desired concentration with solvent. 1 μl of the active compound solution is injected into the abdomen of 5 engorged adult female cattle ticks (Boophilus microplus). The animals are transferred into dishes and kept in a climate-controlled room. Efficacy is assessed after 7 days by laying of fertile eggs. Eggs which are not visibly fertile are stored in a climate-controlled cabinet until the larvae hatch after about 42 days. An efficacy of 100% means that none of the ticks has laid any fertile eggs; 0% means that all the eggs are fertile.

[8] = tested on: Nilaparvata lugens; test: Nilaparvata lugens test; settings: 500 g/ha, spray, rice plants, after 4 days
Procedure: Nilaparvata lugens Test [table] To produce a suitable active compound preparation, 1 part by weight of active compound is dissolved with the specified parts by weight of solvent and made up to the desired concentration with water containing an emulsifier concentration of 1000 ppm. To produce further test concentrations, the formulation is diluted with emulsifier-containing water. Rice plants (Oryza sativa) are sprayed with the active compound preparation of the desired concentration and then infected with larvae of the brown planthopper (Nilaparvata lugens). After 4 days, the efficacy in % is determined. 100% means that all of the planthoppers have been killed; 0% means that none of the planthoppers have been killed.

[9] = tested on: Myzus persicae; test: Myzus persicae oral test; settings: 120 h, 20 ppm, after 5 days, read-out: efficacy
Procedure: Myzus persicae—Oral Test [table] To produce a suitable active compound preparation, 1 part by weight of active compound is dissolved with the stated parts by weight of solvent and made up to the desired concentration with water. 50 μl of the active compound preparation are transferred into microtitre plates and made up to a final volume of 200 μl with 150 μl of IPL41 insect medium (33%+15% sugar). Subsequently, the plates are sealed with parafilm, which a mixed population of green peach aphids (Myzus persicae) within a second microtitre plate is able to puncture and imbibe the solution through it. After 5 days, the efficacy in % is determined. 100% means that all the aphids have been killed; 0% means that no aphids have been killed.

[10] = tested on: Myzus persicae; test: Myzus persicae spray test (bell pepper plants); settings: 100 ppm, after 6 days
Procedure: Myzus persicae—Spray Test [table] To produce a suitable active compound preparation, 1 part by weight of active compound is dissolved with the specified parts by weight of solvent and made up to the desired concentration with water containing an emulsifier concentration of 1000 ppm. To produce further test concentrations, the formulation is diluted with emulsifier-containing water. If the addition of ammonium salts or/and penetrants is required, these are each added in a concentration of 1000 ppm to the formulation solution. Bell pepper plants (Capsicum annuum) severely infested with the green peach aphid (Myzus persicae) are treated by spraying with the active compound preparation in the desired concentration. After 6 days, the kill in % is determined. 100% means that all of the aphids have been killed; 0% means that none of the aphids have been killed.

Work on `COc1ccc(Cl)c(S(=O)(=O)NC(=O)c2cc3cc(Cl)cc(Cl)n3n2)c1` yielded a nematode control efficacy (%) at 1 ppm [1] of 0%.
Work on `COc1ccc(Cl)c(S(=O)(=O)NC(=O)c2cc3c(Cl)cc(C(F)(F)F)cn3n2)c1` yielded a nematode control efficacy (%) at 8 ppm [1] of 30%.
Work on `COc1ccc(S(=O)(=O)NC(=O)c2ncn(CCC(F)(F)F)c2Cl)cc1C` [I-037] yielded an efficacy [2] of 83% and a pest or weed control at 20 ppm [3] of 100%.
With `O=C(NS(=O)(=O)c1ccccc1)c1ncn(C2CC2C(F)(F)F)c1Cl` (centres unmarked) [I-059] the efficacy [2] was 83%, the pest or weed control at 500 g/ha [4] was 90% and the pest or weed control at 20 ppm [3] was 100%. The efficacy [5] was 100%, the pest or weed control at 500 g/ha [6] was 70% and the “efficacy (laying of fertile eggs)” value [7] was 100%.
Compound `O=C(NS(=O)(=O)c1ccccc1Cl)c1ncn(C2CC2C(F)(F)F)c1Cl` (centres unmarked) [I-060] has a pest or weed control at 500 g/ha [4] of 90%, a pest or weed control at 20 ppm [3] of 90% and an efficacy [5] of 100%. For the same compound, the pest or weed control at 500 g/ha [6] was 70% and the “efficacy (laying of fertile eggs)” value [7] was 70%.
Work on `COc1ccc(S(=O)(=O)NC(=O)c2ncn(C(C)CC(F)(F)F)c2Cl)cc1` (centres unmarked) [I-070] yielded an efficacy [8] of 100% and a pest or weed control at 20 ppm [3] of 100%.
Compound `O=C(NS(=O)(=O)c1ccccc1Cl)c1nc(Br)n(CCC(F)(F)F)c1Br` [I-107] has an efficacy [8] of 100% and a pest or weed control at 20 ppm [3] of 100%.
For `COc1ccc(Cl)c(S(=O)(=O)NC(=O)c2nc(Cl)n(-c3cc(Cl)cc(Cl)c3)c2Cl)c1` [I-113], the pest or weed control at 20 ppm [3] was 100% and the nematode control efficacy (%) at 0.5 ppm [1] was 100%.
With `COc1ccc(Cl)c(S(=O)(=O)NC(=O)c2cc(-c3cc(Cl)cc(Cl)c3)n(C)n2)c1` [I-137] the pest or weed control at 20 ppm [3] was 100% and the nematode control efficacy (%) at 1 ppm [1] was 85%.
With `COc1ccc(Cl)c(S(=O)(=O)NC(=O)c2cc(-c3cc(Cl)cc(C(F)(F)F)c3)n(C)n2)c1` [I-141] the pest or weed control at 20 ppm [3] was 90% and the nematode control efficacy (%) at 8 ppm [1] was 99%.
Work on `O=C(NS(=O)(=O)c1ccccc1Cl)c1cn(Cc2ccccc2Cl)cn1` [I-156] yielded a pest or weed control at 20 ppm [3] of 100% and an efficacy [5] of 100%.
Compound `Cc1nc(C(=O)NS(=O)(=O)c2ccccc2)cn1-c1cccc(Cl)c1Cl` [I-268] has a pest or weed control at 20 ppm [3] of 100%, a pest or weed control at 20 ppm [9] of 90% and a pest or weed control at 500 g/ha [6] of 90%. For the same compound, the “efficacy (laying of fertile eggs)” value [7] was 80%.
With `Cc1cc(C)cc(-n2cnc(C(=O)NS(=O)(=O)c3ccccc3)c2)c1` [I-284] the pest or weed control at 20 ppm [3] was 70%, the pest or weed control at 20 ppm [9] was 100% and the “efficacy (laying of fertile eggs)” value [7] was 100%.
`O=C(NS(=O)(=O)c1cccc(Cl)c1)c1cn(-c2cc(Cl)cc(C(F)(F)F)c2)cn1` [I-300] showed an efficacy [2] of 100% and a pest or weed control at 20 ppm [3] of 70%.
With `Cc1nc(C(=O)NS(=O)(=O)c2ccccc2Cl)cn1-c1cc(Cl)cc(Cl)c1` [I-316] the “efficacy (kill in %)” value [10] was 95%, the pest or weed control at 20 ppm [3] was 100% and the pest or weed control at 20 ppm [9] was 100%.
For `CCSc1cccc(Cl)c1S(=O)(=O)NC(=O)c1cn(-c2cc(F)cc(F)c2)c(C)n1` [I-387], the “efficacy (kill in %)” value [10] was 99%, the pest or weed control at 20 ppm [3] was 100% and the pest or weed control at 20 ppm [9] was 100%. The pest or weed control at 500 g/ha [6] was 70%.
`CCc1ccc(C)c(S(=O)(=O)NC(=O)c2nc(Cl)n(CCC(F)(F)F)c2Cl)c1` [I-456] gave an efficacy [8] of 100% and a pest or weed control at 20 ppm [3] of 100%.
With `COc1ccc(Cl)c(S(=O)(=O)NC(=O)c2nc(Cl)n(C3CC3C(F)(F)F)c2Cl)c1` (centres unmarked) [I-470] the pest or weed control at 20 ppm [3] was 100% and the nematode control efficacy (%) at 0.5 ppm [1] was 100%.
